From patent publication US20230391778A1, “INDOLIN-2-ONE OR PYRROLO -PYRIDIN -2 -ONE DERIVATIVES” (Hoffmann-La Roche Inc., priority 2014, published 2023)
Counter-ions that a name gives are not always drawn.

Biological target: T1, mouse ENT-1 transporter (Mus musculus, UniProt Q9JIM1)
T1 construct: expressed in transfected cells
T1 sequence (Q9JIM1 1-460): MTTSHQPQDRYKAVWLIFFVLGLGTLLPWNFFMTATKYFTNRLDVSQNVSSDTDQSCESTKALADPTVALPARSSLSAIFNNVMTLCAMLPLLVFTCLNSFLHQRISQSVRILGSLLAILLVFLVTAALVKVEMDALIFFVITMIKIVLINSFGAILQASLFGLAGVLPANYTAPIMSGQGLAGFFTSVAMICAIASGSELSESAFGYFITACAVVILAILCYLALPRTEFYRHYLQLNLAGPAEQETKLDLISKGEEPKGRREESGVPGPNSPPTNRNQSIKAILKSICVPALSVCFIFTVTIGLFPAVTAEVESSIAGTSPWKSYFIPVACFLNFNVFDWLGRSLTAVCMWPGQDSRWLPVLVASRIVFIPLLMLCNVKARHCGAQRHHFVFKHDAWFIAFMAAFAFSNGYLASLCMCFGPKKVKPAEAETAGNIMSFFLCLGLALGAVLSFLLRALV
Assay: Measure of adenosine transport activity (ENT1 adenosine uptake inhibition)
Format: cell-based
Conditions: stable cells expressing mouse ENT-1, [2,8-3H]-adenosine 6 nM, 20 min
Experimental: To measure adenosine transport activity of ENT-1 mammalian cells, stable cells expressing the mouse ENT-1 transporter were plated on day 1 in 96-well culture plates at the density of 60,000 cells/well, in complete DMEM/F12 medium supplemented with glutamax, 10% FBS and 10 μg/ml puromycin. On day 2, the medium was aspirated and the cells were washed twice with uptake buffer (10 mM Hepes-Tris, pH 7.4 containing 150 mM NaCl, 1 mM CaCl2), 2.5 mM KCl, 2.5 mM MgSO4, 10 mM D-glucose) (UB). For inhibition experiments, cells were then incubated at RT with various concentrations of compounds with 1% DMSO final. Non-specific uptake was defined in the presence of 10 μM S-(4-Nitrobenzyl)-6-thioinosine (NBTI, Sigma Cat #N2255).
The plates were then incubated for 20 min with gentle shaking and the reaction was stopped by aspiration of the mixture and washing (three times) with ice-cold UB. The cells were lysed by the addition of scintillation liquid, shaken 3 hours and the radioactivity in the cells was estimated using a microplates scintillation counter (TopCount NXT, Packard).

SMILES	IC50 [µM]
Cc1cc(N2C(=O)C(C)(C)c3ccc(-c4cnc(C)nc4)cc32)cc(C)n1 [Example 66, 1-(2,6-Dimethylpyridin-4-yl)-3,3-dimethyl-6-(2-methylpyrimidin-5-yl)indolin-2-one]	1.14
Cc1cc(C)nc(N2C(=O)C(C)(C)c3ccc(-c4cnc(C)nc4)cc32)n1 [Example 67, 1-(4,6-Dimethylpyrimidin-2-yl)-3,3-dimethyl-6-(2-methylpyrimidin-5-yl)indolin-2-one]	5.63
Cc1ncc(-c2ccc3c(c2)N(c2cnc(C)c(C)c2)C(=O)C3(C)C)cn1 [Example 75, 1-(5,6-dimethylpyridin-3-yl)-3,3-dimethyl-6-(2-methylpyrimidin-5-yl)indolin-2-one]	0.827
Cc1ncc(-c2ccc3c(c2)N(c2cnn(C)c2)C(=O)C3(C)C)cn1 [Example 80, 3,3-dimethyl-1-(1-methyl-1H-pyrazol-4-yl)-6-(2-methylpyrimidin-5-yl)indolin-2-one]	1.5
Cc1ncc(-c2ccc3c(c2)N(c2cncnc2C)C(=O)C3(C)C)cn1 [Example 84, 3,3-dimethyl-6-(2-methylpyrimidin-5-yl)-1-(4-methylpyrimidin-5-yl)indolin-2-one]	15.6
Cc1cc(N2C(=O)C(C)(C)c3ccc(-c4cnc(C)nc4)cc32)[nH]n1 [Example 86, 3,3-dimethyl-1-(3-methyl-1H-pyrazol-5-yl)-6-(2-methylpyrimidin-5-yl)indolin-2-one hydrochloride]	0.423
Cc1ncc(-c2ccc3c(c2)N(c2ncc(C)[nH]2)C(=O)C3(C)C)cn1 [Example 88, 3,3-dimethyl-1-(4-methyl-1H-imidazol-2-yl)-6-(2-methylpyrimidin-5-yl)indolin-2-one]	7.66
Cc1ncc(-c2ccc3c(c2)N(c2cnc(CO)nc2)C(=O)C3(C)C)cn1 [Example 102, 1-(2-(hydroxymethyl)pyrimidin-5-yl)-3,3-dimethyl-6-(2-methylpyrimidin-5-yl)indolin-2-one]	10.2
Cc1ncc(-c2ccc3c(c2)N(c2cnc(CN)nc2)C(=O)C3(C)C)cn1 [Example 103, 1-[2-(aminomethyl)pyrimidin-5-yl]-3,3-dimethyl-6-(2-methylpyrimidin-5-yl)indol-2-one]	18.4
Cc1ncc(-c2ccc3c(c2)N(c2ccc(C)[n+]([O-])n2)C(=O)C3(C)C)c[n+]1[O-] [Example 107, 3-(3,3-dimethyl-6-(2-methyl-1-oxidopyrimidin-5-yl)-2-oxoindolin-1-yl)-6-methylpyridazine 1-oxide]	2.19
Cc1ncc(-c2ccc3c(c2)N(c2cnc(CF)nc2)C(=O)C3(C)C)cn1 [Example 108, 1-(2-(fluoromethyl)pyrimidin-5-yl)-3,3-dimethyl-6-(2-methylpyrimidin-5-yl)indolin-2-one]	1.9
Cc1ncc(-c2ccc3c(c2)N(c2cnc(Cl)nc2)C(=O)C3(C)C)cn1 [Example 114, 1-(2-chloropyrimidin-5-yl)-3,3-dimethyl-6-(2-methylpyrimidin-5-yl)indolin-2-one]	0.456
Cc1ncc(-c2ccc3c(c2)N(c2cc(Cl)nc(Cl)c2)C(=O)C3(C)C)cn1 [Example 115, 1-(2,6-dichloropyridin-4-yl)-3,3-dimethyl-6-(2-methylpyrimidin-5-yl)indolin-2-one]	0.144
Cc1cc(N2C(=O)C(C)(C)c3ccc(-c4cnc(C)nc4)cc32)cc(Cl)n1 [Example 119, 1-(2-chloro-6-methylpyridin-4-yl)-3,3-dimethyl-6-(2-methylpyrimidin-5-yl)indolin-2-one]	0.335
Cc1ncc(-c2ccc3c(c2)N(c2nc(C)ns2)C(=O)C3(C)C)cn1 [Example 123, 3,3-dimethyl-1-(3-methyl-1,2,4-thiadiazol-5-yl)-6-(2-methylpyrimidin-5-yl)indolin-2-one]	0.694
COCc1ccc(N2C(=O)C(C)(C)c3ccc(-c4cnc(C)nc4)cc32)cn1 [Example 129, 1-(6-(methoxymethyl)pyridin-3-yl)-3,3-dimethyl-6-(2-methylpyrimidin-5-yl)indolin-2-one]	0.887
Cc1cnc(-c2ccc3c(c2)N(c2cncc(C)n2)C(=O)C3(C)C)cn1 [Example 132, 3,3-dimethyl-6-(5-methylpyrazin-2-yl)-1-(6-methylpyrazin-2-yl)indolin-2-one]	2.45
Cc1cnc(-c2ccc3c(c2)N(c2cnc(C)nc2)C(=O)C3(C)C)cn1 [Example 133, 3,3-dimethyl-6-(5-methylpyrazin-2-yl)-1-(2-methylpyrimidin-5-yl)indolin-2-one]	4.79

Next, values leading:

IC50 [µM]	SMILES
0.502	Cc1cc(N2C(=O)C(C)(C)c3ccc(-c4cnc(C)nc4)cc32)nc(C)n1 [Example 68, 1-(2,6-Dimethylpyrimidin-4-yl)-3,3-dimethyl-6-(2-methylpyrimidin-5-yl)indolin-2-one]
1.28	Cc1ncc(-c2ccc3c(c2)N(c2cc(C)c(C)cn2)C(=O)C3(C)C)cn1 [Example 69, 1-(4,5-Dimethylpyridin-2-yl)-3,3-dimethyl-6-(2-methylpyrimidin-5-yl)indolin-2-one]
2.1	Cc1ncc(-c2ccc3c(c2)N(c2cccnn2)C(=O)C3(C)C)cn1 [Example 76, 3,3-dimethyl-6-(2-methylpyrimidin-5-yl)-1-(pyridazin-3-yl)indolin-2-one]
3.88	Cc1ncc(-c2ccc3c(c2)N(c2ncccn2)C(=O)C3(C)C)cn1 [Example 79, 3,3-dimethyl-6-(2-methylpyrimidin-5-yl)-1-(pyrimidin-2-yl)indolin-2-one]
4.66	Cc1ncc(-c2ccc3c(c2)N(c2cn[nH]c2)C(=O)C3(C)C)cn1 [Example 83, 3,3-dimethyl-6-(2-methylpyrimidin-5-yl)-1-(1H-pyrazol-4-yl)indolin-2-one]
5.24	Cc1ncc(-c2ccc3c(c2)N(c2c[nH]cn2)C(=O)C3(C)C)cn1 [Example 85, 1-(1H-imidazol-4-yl)-3,3-dimethyl-6-(2-methylpyrimidin-5-yl)indolin-2-one]
2.07	Cc1ncc(-c2ccc3c(c2)N(c2cn(C)nn2)C(=O)C3(C)C)cn1 [Example 87, 3,3-dimethyl-1-(1-methyl-1H-1,2,3-triazol-4-yl)-6-(2-methylpyrimidin-5-yl)indolin-2-one]
1.29	Cc1ncc(-c2ccc3c(c2)N(c2ncc[nH]2)C(=O)C3(C)C)cn1 [Example 92, 1-(1H-imidazol-2-yl)-3,3-dimethyl-6-(2-methylpyrimidin-5-yl)indolin-2-one]
1.16	CCn1ccc(N2C(=O)C(C)(C)c3ccc(-c4cnc(C)nc4)cc32)n1 [Example 94, 1-(1-ethyl-1H-pyrazol-3-yl)-3,3-dimethyl-6-(2-methylpyrimidin-5-yl)indolin-2-one]
0.154	Cc1ncc(-c2ccc3c(c2)N(c2cnc(C#N)cn2)C(=O)C3(C)C)cn1 [Example 96, 5-(3,3-dimethyl-6-(2-methylpyrimidin-5-yl)-2-oxoindolin-1-yl)pyrazine-2-carbonitrile]
4.33	Cc1ncc(-c2ccc3c(c2)N(c2cnccc2C)C(=O)C3(C)C)cn1 [Example 99, 3,3-dimethyl-1-(4-methylpyridin-3-yl)-6-(2-methylpyrimidin-5-yl)indolin-2-one]
7	Cc1ncc(-c2ccc3c(c2)N(c2nnn(C)n2)C(=O)C3(C)C)cn1 [Example 105, 3,3-dimethyl-1-(2-methyl-2H-tetrazol-5-yl)-6-(2-methylpyrimidin-5-yl)indolin-2-one]
0.035	Cc1ncc(-c2ccc3c(c2)N(c2cnc(Cl)cn2)C(=O)C3(C)C)cn1 [Example 117, 1-(5-chloropyrazin-2-yl)-3,3-dimethyl-6-(2-methylpyrimidin-5-yl)indol-2-one]
0.669	Cc1ncc(-c2ccc3c(c2)N(c2cc(Cl)nc(C)n2)C(=O)C3(C)C)cn1 [Example 121, 1-(6-chloro-2-methylpyrimidin-4-yl)-3,3-dimethyl-6-(2-methylpyrimidin-5-yl)indolin-2-one]
0.626	Cc1cnnc(N2C(=O)C(C)(C)c3ccc(-c4cnc(C)nc4)cc32)c1 [Example 122, 3,3-dimethyl-1-(5-methylpyridazin-3-yl)-6-(2-methylpyrimidin-5-yl)indolin-2-one]
0.851	Cc1ncc(-c2ccc3c(c2)N(c2nccc(Cl)n2)C(=O)C3(C)C)cn1 [Example 128, 1-(4-chloropyrimidin-2-yl)-3,3-dimethyl-6-(2-methylpyrimidin-5-yl)indolin-2-one]
2.37	Cc1ncc(-c2ccc3c(c2)N(c2cc(C4CC4)cnn2)C(=O)C3(C)C)cn1 [Example 130, 1-(5-cyclopropylpyridazin-3-yl)-3,3-dimethyl-6-(2-methylpyrimidin-5-yl)indolin-2-one]
0.036	Cc1ncc(-c2ccc3c(c2)N(c2ccc(C4CC4)nn2)C(=O)C3(C)C)cn1 [Example 134, 1-(6-cyclopropylpyridazin-3-yl)-3,3-dimethyl-6-(2-methylpyrimidin-5-yl)indolin-2-one]
